Source: US20170218375A1, “MORPHOLINOS, MORPHOLINO UPREGULATING, AND ASSOCIATED METHODS” (University of Utah Research Foundation, priority 2011, published 2017)

How the values were obtained:
mbVEGFR2 mRNA = assay: Real-time PCR of mbVEGFR2 mRNA after morpholino transfection of HUVECs; type: cell-based, human; settings: GAPDH as internal control, compared with DPBS transfected HUVECs
Description: (§1) In addition, two polyadenylation sites (AAUAAA) are found in intron13 (FIG. 1A). […] FIG. 1(a) illustrates a schematic design of anti-sense morpholino oligomers. FIGS. 1(b, c) show the results of mbVEGFR2 and sVEGFR2 mRNA expression quantified by real-time PCR after morpholino transfection. All results are normalized by GAPDH expression and compared with DPBS transfected HUVECs as 1. p: risk factor by two-tail student's t-test. *: p<0.05, **p<0.01, ***p<0.001 compared with DPBS transfected HUVECs; n=6 for all groups; Error bar is ±s.e.m. It is thus concluded that human polyadenylation of sVEGFR2 mRNA occurs in intron13, and thus the present disclosure examines whether disruption of splicing between exon13-exon14 upregulates sVEGFR2.
(§2) It was discovered that VEGFR2_MOe13 downregulates mbVEGFR2 mRNA by 40% (p<0.05), while VEGFR2_MOi13 upregulates mbVEGFR2 mRNA by 2.5-fold (p<0.01) compared with DPBS transfected HUVECs.
(§3) Each morpholino oligomer was purchased from Gene Tools (Philomath, Oreg.). […] The cells were washed three times and fluorescence was detected by a FACScan Analyzer (BD Biosciences, San Jose, Calif.). […]
(§4) cDNAs were synthesized from 400 ng total RNA using Omniscript RT kit (Qiagen, Valencia, Calif.) and Oligo-dT primer(dT20) according to the manufacturer's instructions. Real-time PCR was performed using QuantiTect SYBR Green PCR Kit (Qiagen, Valencia, Calif.) and 1 μl of cDNA. […]

sVEGFR2 mRNA [1] = assay: Real-time PCR of sVEGFR2 mRNA after morpholino transfection of HUVECs; type: cell-based, human; settings: GAPDH as internal control, compared with DPBS transfected HUVECs, p<0.001
Description: as §1, §2, §3, §4

sVEGFR2 mRNA [2] = assay: RT-PCR analysis of sVEGFR2 mRNA from HUVECs two days after morpholino transfection; type: cell-based, human
Experimental: To limit the possibility of genomic contamination, VEGFR2exon10_F (designed in exon10) and VEGFR2_R (designed in intron13) were used for primers to detect sVEGFR2.
(§5) Each morpholino oligomer was purchased from Gene Tools (Philomath, Oreg.). The sequences of each morpholino oligomer and primers for PCR are listed in supplemental Table. HUVECs (Lonza, Walkersville, Md.) were cultured in EBM with EGM SingleQuot Kit supplements and growth factors according to the manufacturer's instructions (Lonza, Walkersville, Md.). MS-1 cells, a mouse endothelial cell line (ATCC, Manassas, Va.) were cultured in 5% FBS/DMEM. Morpholino oligomers were delivered to the nucleus by nucleofection (Amaxa, Gaithersburg, Md.) with a Basic Nucleofector Kit for Primary Mammalian Endothelial Cells (Amaxa, Gaithersburg, Md.) using program A-034 for HUVEC and MS-1 cells. For each nucleofection, 1×10^6 cells were used and plated on a 6-well plate. After 2 days of culture, cells were trypsinized and total RNA was extracted using a RNeasy mini kit (Qiagen, Valencia, Calif.) with DNaseI treatment. Detection of mbVEGFR2 was achieved by flow cytometry. […] The cells were washed three times and fluorescence was detected by a FACScan Analyzer (BD Biosciences, San Jose, Calif.). […]

mbVEGFR2 protein [3] = assay: Flow cytometry analysis of mbVEGFR2 protein on cell surfaces of transfected HUVECs; type: cell-based, human; settings: flow cytometry three days after nucleofection, DPBS 83.3%
Experimental: (§6) Next, mbVEGFR2 protein expression by western blot was examined. VEGFR2_MOe13 or a combination of VEGFR2_MOe13 and VEGFR2_MOi13 reduced mbVEGFR2 protein expression compared to DPBS and STD_MO. […] (f) HUVECs stained with only secondary antibody were used as a negative control. […] To confirm sVEGFR2 protein expression, western blot from culture medium of morpholino transfected HUVECs was performed using an antibody recognizing the extracellular domains of VEGFR2 (FIG. 5). […] It is known that mbVEGFR2 can be glycosylated, thus increasing the molecular weight from 150 kD to 230 kD. In addition, sVEGFR2 has been detected at 160 kDa, although it has not reported whether this was derived from alternative polyadenylation or proteolytic cleavage from mbVEGFR2. Based on this information, it is likely that sVEGFR2 protein, upregulted following morpholino treatment, is glycosylated with an observed molecular weight of 150 kDa.
Each morpholino oligomer was purchased from Gene Tools (Philomath, Oreg.). The sequences of each morpholino oligomer and primers for PCR are listed in supplemental Table. HUVECs (Lonza, Walkersville, Md.) were cultured in EBM with EGM SingleQuot Kit supplements and growth factors according to the manufacturer's instructions (Lonza, Walkersville, Md.). […] The cells were washed three times and fluorescence was detected by a FACScan Analyzer (BD Biosciences, San Jose, Calif.). […]

sVEGFR2 protein = assay: Western blot of culture medium of morpholino transfected HUVECs against VEGFR2 extracellular domain; type: cell-based, human; settings: three days, antibody to VEGFR2 extracellular domains
Experimental: as §6
(§7) After nucleofection, cells were cultured in a 75 cm^2 flask for three days without changing the medium. After three days the media was collected and cell debris was removed by centrifugation. Trichloroacetic acid (20% (w/v), Fisher Scientific, Pittsburgh, Pa.) was added to concentrate the supernatant (final concentration of trichloroacetic acid was 10%). Cells were incubated in trichloroacetic acid for 30 minutes on ice and then centrifuged at ×12000 g 4° C. for 5 minutes. […]

sVEGFR2 mRNA [4] = assay: Long-range 3'RACE from morpholino transfected HUVECs; type: cell-based, human
Experimental: To determine the 3′UTR of sVEGFR2 mRNA induced by morpholinos, long-range 3′RACE was performed (FIG. 5C). A strong band (˜1600 bp) was detected from VEGFR2_MOe13 and the combination of VEGFR2_MOe13 and VEGFR2_MOi13 transfected HUVECs. Based on the sequence of this band, sVEGFR2 mRNA utilizes a polyadenylation site located in 1403-1408 nt range of intron13 (FIG. 6B). […] These sequence components are similar to typical polyadenylation signals, which contain a cleavage site 10-35 nt downstream of AAUAAA and a GU-rich region 14-70 nt downstream of AAUAAA. […] Corneal tissue is known to predominantly express sVEGFR2.
cDNA was synthesized from total RNA extracted from morpholino transfected HUVEC using a cloning_R1 (Table 1). PCR was performed using a LongRange PCR Kit (Qiagen, Valencia, Calif.). PCR conditions: 93° C. for 3 minutes, 35 cycles of 93° C. for 15 seconds, 55° C. for 30 seconds and 68° C. for 6 minutes using VEGFR2_F1 and cloning_R2. After 1% agarose gel electrophoresis, specific bands were excised and subjected to DNA sequencing. To determine endogenous 3′UTR of sVEGFR2 mRNA, total RNA extracted from one human cornea which was obtained from the Utah Lions Eye Bank. cDNA was synthesized with the same above method, and PCR was performed using cloning_F(1042-1061) which is designed in human VEGFR2 intron13 and cloning_R2.

mbVEGFR2 protein [5] = assay: Western blot for mbVEGFR2 from morpholino transfected HUVECs; type: cell-based, human; settings: compared to DPBS and STD_MO
Experimental: as §6, §7

[6] = system: laser-induced choroidal neovascularization (CNV); assay: Laser-induced choroidal neovascularization (CNV) in mouse; type: in vivo; settings: 2 μl intravitreously day 1 and day 4: 100 ng/μl moVEGFR2_MOe13, 500 ng/μl anti-mouse VEGF-A IgG, 2 ng/μl SU1498, CNV volume day 7
Experimental: It was also examined whether moVEGFR2_MOe13 inhibits laser-induced choroidal neovascularization (CNV). Each morpholino or DPBS was injected intravitreously on day 1 and day 4 after laser photocoagulation, and laser CNV volumes were examined on day 7. […] Vessel endothelial cells were stained with Alexa fluor488 conjugated isolectin GS-IB4. […] After photocoagulation, on day 1 and day 4, 2 ul of 100 ng/μl STD_MO, 500 ng/μl Goat IgG (AB-108-C, R&D Systems, Minneapolis, Minn.), 100 ng/μl moVEGFR2_MOe13, 500 ng/μl Goat Anti-mouse VEGF-A IgG (AF-493-NA, R&D Systems, Minneapolis, Minn.) or 2 ng/μl SU1498 (572888, EMD chemicals, Gibbstown, N.J.) was injected intravitreously. On day 7, CNV volumes were measured by confocal microscope. n=14-20 for each group. Risk factors (p-value) were calculated by two-tail student's t-test (*: p<0.05, **p<0.01). Error bar is ±s.e.m.
as §5

Compound	upregulation of mbVEGFR2 mRNA (mbVEGFR2 mRNA; p<0.01) [fold]	increase of sVEGFR2 mRNA (sVEGFR2 mRNA [1]) [fold]	detection of sVEGFR2 mRNA by RT-PCR (sVEGFR2 mRNA [2])	mbVEGFR2 positive cells (mbVEGFR2 protein [3]) [%]	sVEGFR2 protein in culture medium by western blot (sVEGFR2 protein)	3'RACE band (~1600 bp) corresponding to sVEGFR2 mRNA using the polyadenylation site in intron13 (sVEGFR2 mRNA [4])	downregulation of mbVEGFR2 mRNA (mbVEGFR2 mRNA; p<0.05) [%]	mbVEGFR2 protein expression by western blot (mbVEGFR2 protein [5])	suppression of CNV compared with anti-VEGF-A IgG and SU1498 (FIG. 9) [6]
5′-CCACACGCTctagacacacaaaaag-3′ (antisense CCACACGCTCTAGACACACAAAAAG; all phosphorodiamidate morpholino (PMO)) [VEGFR2_MOi13, antisense morpholino oligomer corresponding to the junction of intron13-exon14 of human VEGFR2]	2.5	4.4	detected	82.5	could not detect	did not show a strong band	–	–	–
5′-gatccagaattgtctccctacCTAG-3′ (antisense GATCCAGAATTGTCTCCCTACCTAG; all phosphorodiamidate morpholino (PMO)) [VEGFR2_MOe13, antisense morpholino oligomer corresponding to the junction of exon13-intron13 of human VEGFR2]	–	17	detected	40.7	150 kD bands were detected	strong band	40	reduced	–
CC(C)c1cc(/C=C(\C#N)C(=O)NCCCc2ccccc2)cc(C(C)C)c1O [SU1498, reference compound]	–	–	–	–	–	–	–	–	inhibitory effects
